Literature values, collected in US20220331289A1, “Pharmaceutical Composition Comprising an Artemisinin Derivative for Nasal or Pulmonary Delivery” (Cipla Limited, priority 2014, published 2022).

Settings: oil-based intramuscular injection formulation

## CO[C@H]1O[C@@H]2O[C@@]3(C)CC[C@H]4[C@H](C)CC[C@@H]([C@H]1C)[C@@]24OO3 [artemether]
  absorption: slowly and erratically absorbed
